From patent publication US12060573B2, “Stabilized amorphous calcium carbonate as a supplement for cell culture media” (AMORPHICAL LTD., priority 2016, dated 2024)
Several values for one entry are separate records, joined by “and”; a condition that tells them apart may be missing. Equal values may be shown once. Entries after “also recorded” stand apart in the source; their conditions may differ.

Key:
[1] = system: mdx cell line; details: final Ca2+ 2 mM
Description: Cells from the Mdx cell line were seeded in a Gelatin coated 12 wells culture plate, 3×10^4 cells/well containing 1 mL of Proliferation Medium. Two days later (˜66% confluence), the medium was changed to Fusion Medium which was changed twice a week. The various calcium preparations were separately added to the Fusion Medium according to the treatment described in Table 3. Cultures were enriched with the various calcium preparations, at Ca^2+ concentration of 1 mM. Since the medium already contained 1 mM of calcium ions, then the final concentration of Ca2+ was of 2 mM
The effects of the tested calcium preparations on cell proliferation, fusion to form myotubes and muscle contraction were monitored by daily phase contrast microscopic observation.

[2] = system: spinal cord-dorsal root ganglia (SC-DRG) slices; experiment: Nerve fiber sprouting from SC-DRG co-cultures; assay type: cell-based, rat; details: Ca2+ 2 mM; 4 days of cultivation; portion of 6 explants
Description: Neural and Vascular Reconstruction Gel ([…] Labs proprietary) is composed of two main components: high molecular hyaluronic acid (HA, 3×10^6 Da, BTG, Israel) and laminin (Sigma). […] The gel has the texture of a viscous liquid, it adheres easily and successfully the embedded cells or explants to the plastic or glass substratum, and enabled nerve fiber outgrowth in a 3D pattern. All the experiments were carried out and authorized by the local ethics committee recognized by the Israeli authorities for animal experimentation. Stationary organotypic cultures of dorsal root ganglia (DRG) and spinal cord (SC) as well as cultures of dissociated brain cells were prepared from rat fetuses (15 days of gestation, Lewis inbred, Harlan, Israel). Immediately after dissection, the isolated tissues were cut with a […] tissue chopper into small slices (of 400 μm thickness). In these studies, two tissue culture strategies were used. […] In the second method, the tissue slices were further dissociated with a trypsin-EDTA solution for 30 min, and washed with a culture medium. Subsequently, the dissociated cells were added to a suspension of chitosan powder or gastrolith powder (micro carriers, MCs) and incubated in suspension at 37° C. for 4 days. […] The cultures were monitored by daily phase contrast microscopic observations starting from 24 hours after setting the cultures onward. […]

[3] = system: MBA-13 cells; experiment: Differentiation of MBA13 stem cells to osteoblasts (Alizarin red, alkaline phosphatase staining); assay type: cell-based; details: additional 1 mM calcium (total 2.488 mM); 10 days; gelatin coating
Description: Two days following thawing, MBA-13 cells (received from Prof. Dov Zipori, Weizmann Institute of Science) were re-suspended in recombinant trypsin solution and seeded on a 96 wells plate, (Day “0”) in a concentration of 1×10^4 cells/well using MSC Nutristem® XF basal medium (Biological Industries, cat #05-200-1A) supplemented with Mesenchymal stem cells (MSC) supplement mix medium (Biological Industries cat #05-201-06) in a ratio of 50 ml:300 μl. […] Row G in the plate was treated with MSCgo medium (total 1.488 mM calcium). Row H of the plate was treated with MSC NutriStem® XF nutrient basal medium+ supplement mix (total 1.488 mM calcium). On day 4, medium was exchanged with fresh preparations of ACC. […] Once the cells were fixated, two types of staining reagents were used to stain extracellular calcium or bone deposition in order to estimate osteoblasts functionality: (i) Alizarin red (Sigma A55333) and (ii) Alkaline Phosphatase (DAKO BCIP/NBT substrate system […]) as following: Alizarin red staining procedure-pH was adjusted to 4.2. Cells were washed twice with PBS and fixed with cold methanol for 5 minutes and then washed again with PBS. […] Then, washed 3 times with PBS and following removal of PBS remnants, 3 drops of BCIP/NBT kit solution was used to cover the cells including one empty well without any cells as control to quantify the assay. […]

[4] = system: mice embryos; experiment: In-vitro embryo development in Quinn's Advantage cleavage media; assay type: cell-based
Description: CBA male mice were bred with BL C57 female mice. The mice were kept on a 12 hours photoperiod schedule with unlimited water and food supply. About 6 to 8 weeks after receiving offspring, each female mouse was injected IP with 5IU of pregnant mare serum gonadotropin (PMSG).
After 48 hours each female mouse was injected IP with 5IU human chorionic gonadotropin (hCG). Male mice proven to be fertile were then put together with the superovulated females. The next morning the female mice were examined for the presence of copulatory plugs. Females that had copulatory plugs were euthanized after 24 hours (approximately 36 hours post-coitus) and embryos at 2 cell stage were retrieved from the oviducts as following: the oviducts were dissected in Quinn's Advantage cleavage media (SAGE, Origio, Denmark) and the embryos were transferred to 20 μL drops with Quinn's Advantage cleavage media (SAGE, Origio, Denmark) overlaid with mineral oil and cultured at 37.0° C. under 5% CO2 and atmospheric oxygen. The collected embryos continued to grow, i.e. in-vitro culture (IVC), until blastocyst/hatching stage. To test the effect of amorphous calcium carbonate, the Quinn's Advantage cleavage media (“cleavage media” hereinafter) was supplemented with different additives, i.e. amorphous calcium carbonate stabilized by polyphosphate (ACC-PP), crystalline calcium carbonate (CCC), polyphosphate (PP), phosphoserine (PS) or sodium carbonate ([…]). All supplements were added as a freshly prepared suspension; the preparation of the ACC supplements were performed under aseptic conditions. Untreated cleavage media (without addition of any additive) was used as a control (identified as Cont Q). The embryos were evaluated every day by microscope observation for a detection of the following stages: 2 cells, compactions stage, blastocysts formation and hatching stage. The fraction (in percent) of the embryos reached each stage was calculated (the number of 2 cells embryos was set as 100%).

[5] = system: skeletal muscle cultures; experiment: Myotube formation and contractility in healthy skeletal muscle cultures; assay type: cell-based, rat; details: added 1 mM, final Ca2+ 2 mM
Description: Stationary skeletal muscle cultures were prepared from healthy 1 day new born rat (Sprague Dawley, Harlan, Israel). The muscle tissue was dissected from posterior legs and was thoroughly minced. Digestion was performed with Trypsin-EDTA while gentle trituration. After 30 min the supernatant, containing dissociated cells, was collected and a fresh Trypsin-EDTA was added. This procedure was repeated two more times. Then, all supernatants were pooled, centrifuged, and the cell pellet was re-suspended in Proliferation Medium. Cells were seeded in a Gelatin coated 12 wells culture plates, 1×10^5 cells/well containing 1 mL of Proliferation Medium. Two days later, the medium was changed to Fusion Medium, which was then changed twice a week. The cultures were monitored by daily phase contrast microscopic observations from 24 hours after setting the cultures and onward.
Stock solution of 1% porcine gelatin in water, was sterilized by autoclave. Once cooled, 500 μl of the solution were added to each well of the 12-wells culture plat. After incubation for 20 min at room temperature, the excess solution was removed, and the cells were seeded.
For the proliferation stage, cells were cultured in: DMEM/F12 (containing 1 mM Ca^2+)+10% FBS, 25 μg/mL Gentamycin, and 2 mM L-Glutamine. […]

[6] = Example 10, 1.7 mM, embryos of each of 4 mice grown separately, one line per mouse
[7] = Example 14, pooled embryos, 1.7 mM
[8] = Example 15, 1.7 mM, pooled embryos of mice 3-6
[9] = Example 15, 1.7 mM, sibling embryos (mouse 1: CCC; mouse 2: ACC-PP, NaCO3)
[10] = Example 11, 1.6 mM, pooled embryos of mice 3-7
[11] = Example 12, pooled embryos, 1.6 mM

Compound: [Ca+2].[Cl-].[Cl-] [CaCl2, calcium chloride]
- muscle contractions first observed, day after seeding [1]: ≥ 10 days
- Cultures with axonal regeneration (%) [2]: 50%
- Alizarin Red staining (calcium deposition) [3]: weak signal
- Blast/d3, number of embryos ([4]; Example 7 Test A, 1.7 mM): 16
- Blast/d3, portion of initial number of embryos ([4]; Example 7 Test A, 1.7 mM): 64%
- Comp/d2, portion of initial number of embryos ([4]; Example 7 Test A, 1.7 mM): 64%
- comp/d2, number of embryos ([4]; Example 7 Test A, 1.7 mM): 16
- Blast/d3, number of embryos ([4]; Example 7 Test B, 1.7 mM): 20
- Blast/d3, portion of initial number of embryos ([4]; Example 7 Test B, 1.7 mM): 74%
- Comp/d2, portion of initial number of embryos ([4]; Example 7 Test B, 1.7 mM): 70%
- Hatch/d4, number of embryos ([4]; Example 7 Test B, 1.7 mM): 11
- Hatch/d4, portion of initial number of embryos ([4]; Example 7 Test B, 1.7 mM): 40.7%
- comp/d2, number of embryos ([4]; Example 7 Test B, 1.7 mM): 20
- Blast/d3, number of embryos ([4]; Example 8, 1.7 mM): 8
- Blast/d3, portion of initial number of embryos ([4]; Example 8, 1.7 mM): 80%
- Comp/d2, portion of initial number of embryos ([4]; Example 8, 1.7 mM): 30%
- Hatch/d4, number of embryos ([4]; Example 8, 1.7 mM): 3
- Hatch/d4, portion of initial number of embryos ([4]; Example 8, 1.7 mM): 30%
- comp/d2, number of embryos ([4]; Example 8, 1.7 mM): 3
- Blast/d3, number of embryos ([4]; Example 9, 1.7 mM): 24
- Blast/d3, portion of initial number of embryos ([4]; Example 9, 1.7 mM): 80%
- Comp/d2, portion of initial number of embryos ([4]; Example 9, 1.7 mM): 53.3%
- Hatch/d4, number of embryos ([4]; Example 9, 1.7 mM): 13
- Hatch/d4, portion of initial number of embryos ([4]; Example 9, 1.7 mM): 43.3%
- comp/d2, number of embryos ([4]; Example 9, 1.7 mM): 16
- 8Cell/d2, number of embryos ([4]; Example 10, 1.7 mM, embryos of each of 4 mice (5 months old) grown separately, one line per mouse): 0 (2×) and 4 and 2
- Blast/d3, number of embryos [4, 6]: 2 and 5 and 12 and 1
- Blast/d3, portion of initial number of embryos [4, 6]: (8.3) %; also recorded: (22.2) %; also recorded: (50) %; also recorded: (66.7) %
- Hatch/d4, number of embryos [4, 6]: 0 (2×) and 3 and 7
- Hatch/d4, portion of initial number of embryos [4, 6]: (0) %; also recorded: (30) %; also recorded: (41.2) %
- comp/d2, number of embryos [4, 6]: 3 and 6 and 10 and 1
- effect on embryonic development (blastocysts and hatched blastocysts) ([4]; Example 14, 1.7 mM): negative effect on embryonic development
- 8 cell/d2, number of embryos [4, 7]: 6
- Blast/d3, number of embryos [4, 7]: 10
- Blast/d3, portion of initial number of embryos [4, 7]: 90.90%
- Hatch/d4, number of embryos [4, 7]: 4
- Hatch/d4, portion of initial number of embryos [4, 7]: 36.36%
- comp/d2, number of embryos [4, 7]: 5
- muscle fibers after 7 days ([5]; 7 days): fewer, thinner and shorter muscle fibers
- time to formation of myotubes ([5]; dry powder suspended in water): myotubes formation was observed later

Compound: O=C([O-])[O-].[Na+].[Na+] [NaCO3, sodium carbonate]
- embryonic development compared to control or ACC-PP ([4]; Example 15, 1.7 mM): very poor embryonic development
- 8 cell/d2, number of embryos [4, 8]: 2
- Blast/d3, number of embryos [4, 8]: 0
- Blast/d4, number of embryos [4, 8]: 0
- Hatch/d4, number of embryos [4, 8]: 0
- Hatch/d4, portion of total number of embryos [4, 8]: (0) %
- comp/d2, number of embryos [4, 8]: 7
- degenerative, number of embryos [4, 8]: 1
- early Blast/d3, number of embryos [4, 8]: 0
- 8 cell/d2, number of embryos [4, 9]: 6
- Blast/d3, number of embryos [4, 9]: 2
- Blast/d4, number of embryos [4, 9]: 0
- Hatch/d4, number of embryos [4, 9]: 2
- Hatch/d4, portion of total number of embryos [4, 9]: (12.5) %
- comp/d2, number of embryos [4, 9]: 8
- degenerative, number of embryos [4, 9]: 2
- early Blast/d3, number of embryos [4, 9]: 14

Compound: polyphosphate [PP]
- 8 cell/d2, number of embryos [4, 10]: 9
- Blast/d3, number of embryos [4, 10]: 20
- Blast/d3, portion of initial number of embryos [4, 10]: 54.1%
- Hatch/d4, number of embryos [4, 10]: 17
- Hatch/d4, portion of initial number of embryos [4, 10]: 45.9%
- comp/d2, number of embryos [4, 10]: 20
- 8 cell/d2, number of embryos [4, 11]: 6
- Blast/d3, number of embryos [4, 11]: 34
- Blast/d3, portion of initial number of embryos [4, 11]: 94.44%
- Hatch/d4, number of embryos [4, 11]: 16
- Hatch/d4, portion of initial number of embryos [4, 11]: 44.44%
- comp/d2, number of embryos [4, 11]: 30
